# Measurements reported in US20250325547A1, “ANTI-SARS-COV-2 DRUG” (KAGOSHIMA UNIVERSITY, priority 2021, published 2025).
# Read-outs that look alike come from different tables or passages of the source.
# Assays:
# in vitro [1] = conditions: African green monkey
# SARS-CoV-2 (WK-521) = test: microbe, parasite or virus in culture; assay type: cell-based
# in vitro [2] = conditions: human
# SARS-CoV-2 [3] = test: Anti-SARS-CoV-2 RNA assay in Vero cells; assay type: cell-based; conditions: Table 5, Vero (RNA)
# SARS-CoV-2 [4] = test: Anti-SARS-CoV-2 RNA assay in VeroE6/TMPRSS2 cells; assay type: cell-based; conditions: Table 5, VeroE6/TMPRSS2 (RNA)
# [5] = system: SARS-CoV-2 (WK-521 strain); test: microbe, parasite or virus in culture; conditions: Severe acute respiratory syndrome coronavirus 2, HEK-293T, 72 h
# [6] = system: SARS-CoV-2 (WK-521 strain); conditions: for EC50: HEK293T/ACE2 (RNA), WK-521, MOI 0.1, 3 days
# [7] = Severe acute respiratory syndrome coronavirus 2, 72 h, read-out: EC50 (50% effective concentration, inhibits cell death induced by SARS-CoV-2 infection by 50%), VeroE6/TMPRSS2 cells, SARS-CoV-2 WK-521, MOI 0.01, 3 days, Tables 1-4
# [8] = Severe acute respiratory syndrome coronavirus 2
# [9] = read-out: CC50 (50% toxicity concentration, reduces the number of viable cells in non-infected cells by 50%), non-infected VeroE6/TMPRSS2 cells, 3 days, Tables 1-4
# [10] = read-out: EC50 (50% effective concentration, inhibits cell death induced by SARS-CoV-2 infection by 50%), VeroE6/TMPRSS2 cells, SARS-CoV-2 WK-521, MOI 0.01, 3 days, Tables 1-4
# [11] = Table 5, HEK293T/ACE2, lower row
# [12] = read-out: EC50 (50% effective concentration, inhibits cell death induced by SARS-CoV-2 infection by 50%)
Compound,CC50 at 3 days (in vitro [1]),EC50 (SARS-CoV-2 (WK-521); [7]),further results
CCN(CC)Cc1cc(Nc2ncnc3ccccc23)cc(I)c1O [Compound 4],> 100 µM,16.9 µM,
CCN(Cc1cc(Nc2ncnc3ccccc23)cc(Cl)c1O)c1ccc(Cl)cc1 [Compound 28],> 100 µM,10 µM,
CCN(Cc1cc(Nc2ncnc3ccccc23)cc(Cl)c1O)CC(C)(C)C [Compound 32],60.2 µM,20 µM,
CCN(CC)Cc1cc(Nc2ncnc3ccccc23)cc(Br)c1O [Compound 3],> 100 µM,23.9 µM,
CCN(Cc1cc(Nc2ncnc3ccccc23)ccc1O)c1ccc(Cl)cc1 [Compound 26],> 100 µM,11.7 µM,
CCN(Cc1cc(Nc2ncnc3ccccc23)cc(Cl)c1O)C1CCCCC1 [Compound 19],> 100 µM,,"CC50 at 3 days (in vitro [2]): 36.1 µM; EC50 (SARS-CoV-2 [3]; [8]): 2.9 µM; EC50 (SARS-CoV-2 [4]; [8]): 2.9 µM; CC50 (VeroE6/TMPRSS2 cells; African green monkey, 3 days): > 100 µM; EC50 [5]: 0.14 µM; EC50 (SARS-CoV-2 (WK-521); Severe acute respiratory syndrome coronavirus 2, Table 5, VeroE6/TMPRSS2 (CPE), read-out: EC50): 3.2 µM"
CN1CCN(Cc2cc(Nc3ncnc4ccccc34)cc(I)c2O)CC1 [Compound 10],,,CC50 (VeroE6/TMPRSS2 cells; [9]): > 100 µM; EC50 (SARS-CoV-2 (WK-521); [10]): 15.5 µM
CCCN(CCC)Cc1cc(Nc2ncnc3ccccc23)cc(Cl)c1O [Compound 23],> 100 µM,15.3 µM,
CC(C)N(Cc1cc(Nc2ncnc3ccccc23)cc(Cl)c1O[C@H]1O[C@@H](C)[C@@H](O)[C@@H](O)[C@@H]1O)C(C)C [Compound 34],> 100 µM,60.2 µM,
CN(Cc1ccccc1)Cc1cc(Nc2ncnc3ccccc23)cc(I)c1O [Compound 9],,,CC50 (VeroE6/TMPRSS2 cells; [9]): 38.1 µM; EC50 (SARS-CoV-2 (WK-521); [10]): 8 µM
CC(C)N(Cc1cc(Nc2ncnc3ccccc23)ccc1O)c1ccc(Cl)cc1 [Compound 27],> 100 µM,13.9 µM,
CCN(CC)Cc1cc(Nc2nc(N(C)C)nc3ccccc23)cc(Cl)c1O [Compound 7],49.2 µM,7.2 µM,
CCN(Cc1cc(Nc2ncnc3ccccc23)cc(Cl)c1O)C(C)C [Compound 11],,,"EC50 (SARS-CoV-2 [3]): 5.5 µM; EC50 (SARS-CoV-2 [4]): 1.9 µM; CC50 (HEK293T/ACE2 cells; [11]): 85.4 µM; CC50 (VeroE6/TMPRSS2 cells; Table 5, VeroE6/TMPRSS2 (CPE)): > 100 µM; CC50 (VeroE6/TMPRSS2 cells; [9]): > 100 µM; EC50 (SARS-CoV-2 (WK-521); [12]): 7.6 µM; EC50 [6]: 0.12 µM"
CC1CC(C)CN(Cc2cc(Nc3ncnc4ccccc34)cc(Cl)c2O)C1 (stereo not drawn) [Compound 24],> 100 µM,2.1 µM,
CCCN(Cc1cc(Nc2ncnc3ccccc23)cc(Cl)c1O)C(C)C [Compound 21],> 100 µM,11.7 µM,
CCN(CC)Cc1cc(Nc2nc(N(C)C)nc3ccccc23)cc(I)c1O [Compound 6],49.9 µM,12.9 µM,
C[C@@H]1CN(Cc2cc(Nc3ncnc4ccccc34)cc(Cl)c2O)[C@@H](C)CN1C (racemic) [Compound 33],> 100 µM,54.7 µM,
CCN(Cc1cc(Nc2ncnc3ccccc23)cc(Cl)c1O)C(C)(C)C [Compound 20],> 100 µM,3.9 µM,
CC(C)N(Cc1cc(Nc2ncnc3ccccc23)cc(I)c1O)C(C)C [Compound 16],,,CC50 (VeroE6/TMPRSS2 cells; [9]): > 100 µM; EC50 (SARS-CoV-2 (WK-521); [10]): 44.6 µM
CC(C)N(Cc1cc(Nc2ncnc3ccccc23)cc(Cl)c1O)C(C)(C)C [Compound 22],> 100 µM,10.8 µM,
CC(C)N(Cc1ccncc1)Cc1cc(Nc2ncnc3ccccc23)cc(Cl)c1O [Compound 29],> 100 µM,10.6 µM,
"CC(C)(C)[C@H](NC(=O)C(F)(F)F)C(=O)N1C[C@H]2[C@@H]([C@H]1C(=O)N[C@H](C#N)C[C@@H]1CCNC1=O)C2(C)C [Nirmatrelvir, reference compound]",,,"CC50 (in vitro [1]): > 100 µM; EC50 (SARS-CoV-2 (WK-521); Severe acute respiratory syndrome coronavirus 2, VeroE6/TMPRSS2, 72 h, read-out: EC50 (50% effective concentration, inhibits cell death induced by SARS-CoV-2 infection by 50%)): 8.3 µM"
CCN(Cc1cc(Nc2ncnc3ccccc23)cc(Cl)c1O)c1ccc(F)c(Cl)c1 [Compound 30],> 100 µM,10.8 µM,
C[C@H]1C[C@H](C)CN(Cc2cc(Nc3ncnc4ccccc34)cc(Cl)c2O)C1 [Compound 31],37.5 µM,19.4 µM,
CCNCc1cc(Nc2ncnc3ccccc23)cc(I)c1O [Compound 13],> 100 µM,44.7 µM,
CCN(CC)Cc1cc(Nc2ncnc3cc(OC)c(OC)cc23)cc(I)c1O [Compound 5],> 100 µM,31.6 µM,
CCN(C)Cc1cc(Nc2ncnc3ccccc23)cc(I)c1O [Compound 8],,,CC50 (VeroE6/TMPRSS2 cells; [9]): > 100 µM; EC50 (SARS-CoV-2 (WK-521); [10]): 57.6 µM
CC(C)N(Cc1cc(Nc2ncnc3cc(F)ccc23)cc(Cl)c1O)C(C)C [Compound 25],> 100 µM,2.5 µM,
CC(C)N(Cc1cc(Nc2ncnc3ccccc23)cc(Cl)c1O)C(C)C [Compound 15],,,"EC50 (SARS-CoV-2 [3]): 1.7 µM; EC50 (SARS-CoV-2 [4]): 1.9 µM; CC50 (HEK293T/ACE2 cells; [11]): > 100 µM; CC50 (HEK293T/ACE2 cells; read-out: 50% toxicity concentration (CC50), HEK293T/ACE2 cells, text b80): > 100 µM; CC50 (VeroE6/TMPRSS2 cells; Table 5, VeroE6/TMPRSS2 (CPE)): > 100 µM; CC50 (VeroE6/TMPRSS2 cells; [9]): > 100 µM; EC50 (SARS-CoV-2 (WK-521); [12]): 3.3 µM; selectivity coefficient (CC50/EC50) [6]: > 833; EC50 [6]: 0.12 µM"
